{"source": "ChEMBL document CHEMBL1201862", "about": "“PubChem BioAssay data set” (2004)", "assay_in_all_cases": "growth of human tumour cells (NCI), 48 h", "key": {"NCI-H460": {"tested_on": "NCI-H460"}, "M14": {"tested_on": "M14"}, "COLO 205": {"tested_on": "COLO 205"}, "SF-539": {"tested_on": "SF-539"}, "ACHN": {"tested_on": "ACHN"}, "UACC-62": {"tested_on": "UACC-62"}, "RPMI-8226": {"tested_on": "RPMI-8226"}, "SNB-75": {"tested_on": "SNB-75"}, "SK-MEL-2": {"tested_on": "SK-MEL-2"}, "KM-20L2": {"tested_on": "KM-20L2"}, "RXF 393": {"tested_on": "RXF 393"}, "TK-10": {"tested_on": "TK-10"}, "SR": {"tested_on": "SR"}, "SF-295": {"tested_on": "SF-295"}, "SK-OV-3": {"tested_on": "SK-OV-3"}, "K562": {"tested_on": "K562"}, "HT-29": {"tested_on": "HT-29"}, "SNB-78": {"tested_on": "SNB-78"}, "UO-31": {"tested_on": "UO-31"}, "CCRF-CEM": {"tested_on": "CCRF-CEM"}, "XF498": {"tested_on": "XF498"}, "EKVX": {"tested_on": "EKVX"}, "MOLT-4": {"tested_on": "MOLT-4"}, "HOP-92": {"tested_on": "HOP-92"}, "LXFL 529": {"tested_on": "LXFL 529"}, "KM12": {"tested_on": "KM12"}, "HOP-62": {"tested_on": "HOP-62"}, "UACC-257": {"tested_on": "UACC-257"}, "LOX IMVI": {"tested_on": "LOX IMVI"}, "OVCAR-3": {"tested_on": "OVCAR-3"}, "HOP-18": {"tested_on": "HOP-18"}, "A549": {"tested_on": "A549"}, "RXF 631": {"tested_on": "RXF 631"}, "SNB-19": {"tested_on": "SNB-19"}, "786-0": {"tested_on": "786-0"}, "NCI-H226": {"tested_on": "NCI-H226"}, "SW-620": {"tested_on": "SW-620"}, "HCC 2998": {"tested_on": "HCC 2998"}, "HCT-116": {"tested_on": "HCT-116"}, "DMS-273": {"tested_on": "DMS-273"}, "DMS-114": {"tested_on": "DMS-114"}, "Malme-3M": {"tested_on": "Malme-3M"}, "SK-MEL-5": {"tested_on": "SK-MEL-5"}, "CAKI-1": {"tested_on": "CAKI-1"}, "SF-268": {"tested_on": "SF-268"}, "U-251": {"tested_on": "U-251"}, "OVCAR-5": {"tested_on": "OVCAR-5"}, "HL-60": {"tested_on": "HL-60"}, "NCI-H23": {"tested_on": "NCI-H23"}, "OVCAR-8": {"tested_on": "OVCAR-8"}, "SN12C": {"tested_on": "SN12C"}, "M19-MEL": {"tested_on": "M19-MEL"}, "OVCAR-4": {"tested_on": "OVCAR-4"}, "IGROV-1": {"tested_on": "IGROV-1"}, "SK-MEL-28": {"tested_on": "SK-MEL-28"}, "HCT-15": {"tested_on": "HCT-15"}, "DLD-1": {"tested_on": "DLD-1"}}, "note": "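Values below derive from 48-hour exposures of cells grown in 96-well plates, with endpoints linearly interpolated between the two concentrations bracketing the appropriate inhibition level. GI50 marks 50% less growth.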 The source made the active and inactive calls. Cut-off read from the data, not from the text of the source: active = GI50 up to about 1.1 µM and inactive = higher.", "data": [{"smiles": "FC(F)(F)c1nc(Br)[nH]c1C(F)(F)F", "values": [{"measurement": "GI50", "setting": "NCI-H460", "result": "> 100 µM (inactive)"}, {"measurement": "GI50", "setting": "M14", "result": "> 100 µM (inactive)"}, {"measurement": "GI50", "setting": "COLO 205", "result": "> 100 µM (inactive)"}, {"measurement": "GI50", "setting": "SF-539", "result": "> 100 µM (inactive)"}, {"measurement": "GI50", "setting": "ACHN", "result": "> 100 µM (inactive)"}, {"measurement": "GI50", "setting": "UACC-62", "result": "37.6 µM (inactive)"}, {"measurement": "GI50", "setting": "RPMI-8226", "result": "51.3 µM (inactive)"}, {"measurement": "GI50", "setting": "SNB-75", "result": "> 100 µM (inactive)"}, {"measurement": "GI50", "setting": "SK-MEL-2", "result": "38.4 µM (inactive)"}, {"measurement": "GI50", "setting": "KM-20L2", "result": "64.6 µM (inactive)"}, {"measurement": "GI50", "setting": "RXF 393", "result": "73.5 µM (inactive)"}, {"measurement": "GI50", "setting": "TK-10", "result": "> 100 µM (inactive)"}, {"measurement": "GI50", "setting": "SR", "result": "35.6 µM (inactive)"}, {"measurement": "GI50", "setting": "SF-295", "result": "> 100 µM (inactive)"}, {"measurement": "GI50", "setting": "SK-OV-3", "result": "> 100 µM (inactive)"}, {"measurement": "GI50", "setting": "K562", "result": "43 µM (inactive)"}, {"measurement": "GI50", "setting": "HT-29", "result": "> 100 µM (inactive)"}, {"measurement": "GI50", "setting": "SNB-78", "result": "> 100 µM (inactive)"}, {"measurement": "GI50", "setting": "UO-31", "result": "> 100 µM (inactive)"}, {"measurement": "GI50", "setting": "CCRF-CEM", "result": "66.5 µM (inactive)"}, {"measurement": "GI50", "setting": "XF498", "result": "> 100 µM (inactive)"}, {"measurement": "GI50", "setting": "EKVX", "result": "> 100 µM (inactive)"}, {"measurement": "GI50", "setting": "MOLT-4", "result": "> 100 µM (inactive)"}, {"measurement": "GI50", "setting": "HOP-92", "result": "27.8 µM (inactive)"}, {"measurement": "GI50", "setting": "LXFL 529", "result": "92.3 µM (inactive)"}, {"measurement": "GI50", "setting": "KM12", "result": "> 100 µM (inactive)"}, {"measurement": "GI50", "setting": "HOP-62", "result": "32 µM (inactive)"}, {"measurement": "GI50", "setting": "UACC-257", "result": "> 100 µM (inactive)"}, {"measurement": "GI50", "setting": "LOX IMVI", "result": "> 100 µM (inactive)"}, {"measurement": "GI50", "setting": "OVCAR-3", "result": "60.4 µM (inactive)"}, {"measurement": "GI50", "setting": "HOP-18", "result": "28.8 µM (inactive)"}, {"measurement": "GI50", "setting": "A549", "result": "> 100 µM (inactive)"}, {"measurement": "GI50", "setting": "RXF 631", "result": "61.4 µM (inactive)"}, {"measurement": "GI50", "setting": "SNB-19", "result": "> 100 µM (inactive)"}, {"measurement": "GI50", "setting": "786-0", "result": "> 100 µM (inactive)"}, {"measurement": "GI50", "setting": "NCI-H226", "result": "51.9 µM (inactive)"}, {"measurement": "GI50", "setting": "SW-620", "result": "> 100 µM (inactive)"}, {"measurement": "GI50", "setting": "HCC 2998", "result": "49.9 µM (inactive)"}, {"measurement": "GI50", "setting": "HCT-116", "result": "45.7 µM (inactive)"}, {"measurement": "GI50", "setting": "DMS-273", "result": "> 100 µM (inactive)"}, {"measurement": "GI50", "setting": "DMS-114", "result": "40.2 µM (inactive)"}, {"measurement": "GI50", "setting": "Malme-3M", "result": "> 100 µM (inactive)"}, {"measurement": "GI50", "setting": "SK-MEL-5", "result": "76.7 µM (inactive)"}, {"measurement": "GI50", "setting": "CAKI-1", "result": "> 100 µM (inactive)"}, {"measurement": "GI50", "setting": "SF-268", "result": "> 100 µM (inactive)"}, {"measurement": "GI50", "setting": "U-251", "result": "67.5 µM (inactive)"}, {"measurement": "GI50", "setting": "OVCAR-5", "result": "> 100 µM (inactive)"}, {"measurement": "GI50", "setting": "HL-60", "result": "> 100 µM (inactive)"}, {"measurement": "GI50", "setting": "NCI-H23", "result": "86.7 µM (inactive)"}, {"measurement": "GI50", "setting": "OVCAR-8", "result": "> 100 µM (inactive)"}, {"measurement": "GI50", "setting": "SN12C", "result": "69 µM (inactive)"}, {"measurement": "GI50", "setting": "M19-MEL", "result": "> 100 µM (inactive)"}, {"measurement": "GI50", "setting": "OVCAR-4", "result": "> 100 µM (inactive)"}, {"measurement": "GI50", "setting": "IGROV-1", "result": "> 100 µM (inactive)"}, {"measurement": "GI50", "setting": "SK-MEL-28", "result": "> 100 µM (inactive)"}, {"measurement": "GI50", "setting": "HCT-15", "result": "> 100", "unit": "µM"}, {"measurement": "GI50", "setting": "DLD-1", "result": "> 100 µM (inactive)"}]}]}
